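How tested: cells in 96-well plates exposed to compound for 48 hours at five concentrations. The concentration for 50% growth inhibition is given as GI50. TGI: concentration producing complete growth inhibition.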
Tests used:
Test in all cases: DTP human tumour cell line panel, 48 h
[1] = tested on: MCF7 breast
[2] = tested on: OVCAR-8 ovarian
[3] = tested on: DU-145 prostate
[4] = tested on: SF-295 CNS
[5] = tested on: MOLT-4 leukemia
[6] = tested on: PC-3 prostate
[7] = tested on: OVCAR-4 ovarian
[8] = tested on: HCC-2998 colon
[9] = tested on: NCI-H460 lung
[10] = tested on: NCI-H226 lung
[11] = tested on: UO-31 renal
[12] = tested on: OVCAR-3 ovarian
[13] = tested on: MDA-MB-231 breast
[14] = tested on: CCRF-CEM leukemia
[15] = tested on: M14 melanoma
[16] = tested on: BT-549 breast
[17] = tested on: U251 CNS
[18] = tested on: A549 NSCLC
[19] = tested on: HOP-92 NSCLC
[20] = tested on: HS 578T breast
[21] = tested on: HL-60(TB) leukemia
[22] = tested on: SNB-19 CNS
[23] = tested on: SF-268 CNS
[24] = tested on: LOX IMVI melanoma
[25] = tested on: RPMI-8226 leukemia
[26] = tested on: CAKI-1 renal
[27] = tested on: OVCAR-5 ovarian
[28] = tested on: T-47D breast
[29] = tested on: NCI/ADR-RES ovarian
[30] = tested on: KM12 colon
[31] = tested on: SK-OV-3 ovarian
[32] = tested on: K-562 leukemia
[33] = tested on: HCT-15 colon
[34] = tested on: UACC-62 melanoma
[35] = tested on: IGROV1 ovarian
[36] = tested on: MALME-3M melanoma
[37] = tested on: HOP-62 NSCLC
[38] = tested on: SNB-75 CNS
[39] = tested on: TK-10 renal
[40] = tested on: MDA-MB-468 breast
[41] = tested on: HT29 colon
[42] = tested on: SR leukemia
[43] = tested on: SF-539 CNS
[44] = tested on: SK-MEL-2 melanoma
[45] = tested on: SW-620 colon
[46] = tested on: NCI-H23 lung
[47] = tested on: EKVX NSCLC
[48] = tested on: COLO 205 colon
[49] = tested on: ACHN renal
[50] = tested on: MDA-MB-435
[51] = tested on: SN12C renal
[52] = tested on: 786-0 renal
[53] = tested on: UACC-257 melanoma
[54] = tested on: HCT-116 colon
[55] = tested on: NCI-H522 lung
[56] = tested on: A498 renal
[57] = tested on: SK-MEL-28 melanoma
[58] = tested on: SK-MEL-5 melanoma

Q: What does the source list for `COc1cc(/C=C/C(=O)c2ccccc2)ccc1Oc1nc(Nc2ccc(F)cc2)nc(N(C)C)n1`?
A: GI50 [1]: 3.08 µM; TGI [1]: 15 µM; GI50 [2]: 5.9 µM; TGI [2]: 26.5 µM; GI50 [3]: 27.3 µM; TGI [3]: > 100 µM; GI50 [4]: 6.89 µM; TGI [4]: 48.5 µM; GI50 [5]: 2.56 µM; TGI [5]: > 100 µM; GI50 [6]: 10 µM; TGI [6]: > 100 µM; GI50 [7]: 5.85 µM; TGI [7]: 41.7 µM; GI50 [8]: 12.9 µM; TGI [8]: 76.5 µM; GI50 [9]: 9.14 µM; TGI [9]: 30 µM; GI50 [10]: 4.94 µM; TGI [10]: 21.5 µM; GI50 [11]: 4.4 µM; TGI [11]: > 100 µM; GI50 [12]: 11.8 µM; TGI [12]: > 100 µM; GI50 [13]: 6.92 µM; TGI [13]: 21.9 µM; GI50 [14]: 3.38 µM; TGI [14]: > 100 µM; GI50 [15]: 13 µM; TGI [15]: 37.8 µM; GI50 [16]: 12 µM; TGI [16]: 28.6 µM; GI50 [17]: 2.84 µM; TGI [17]: 13.4 µM; GI50 [18]: 11.7 µM; TGI [18]: > 100 µM; GI50 [19]: 2.08 µM; TGI [19]: 12.9 µM; GI50 [20]: 5.44 µM; TGI [20]: 56.4 µM; GI50 [21]: 8.38 µM; TGI [21]: 67.1 µM; GI50 [22]: 10.2 µM; TGI [22]: 27.6 µM; GI50 [23]: 12.2 µM; TGI [23]: > 100 µM; GI50 [24]: 1.6 µM; TGI [24]: 3.15 µM; GI50 [25]: 2.83 µM; TGI [25]: 33.9 µM; GI50 [26]: 5.72 µM; TGI [26]: > 100 µM; GI50 [27]: 13.9 µM; TGI [27]: 48.3 µM; GI50 [28]: 3.36 µM; TGI [28]: > 100 µM; GI50 [29]: 7.04 µM; TGI [29]: 22.6 µM; GI50 [30]: 14.9 µM; TGI [30]: > 100 µM; GI50 [31]: 48.6 µM; TGI [31]: > 100 µM; GI50 [32]: 3.57 µM; TGI [32]: > 100 µM; GI50 [33]: 3.31 µM; TGI [33]: 12.9 µM; GI50 [34]: 4.99 µM; TGI [34]: 24.2 µM; GI50 [35]: 18.7 µM; TGI [35]: > 100 µM; GI50 [36]: 15.9 µM; TGI [36]: 39.6 µM; GI50 [37]: 26.6 µM; TGI [37]: > 100 µM; GI50 [38]: 4.7 µM; TGI [38]: 95.9 µM; GI50 [39]: 18 µM; TGI [39]: > 100 µM; GI50 [40]: 3.21 µM; TGI [40]: 19.9 µM; GI50 [41]: 4.36 µM; TGI [41]: 19 µM; GI50 [42]: 2.9 µM; TGI [42]: > 100 µM; GI50 [43]: 13.8 µM; TGI [43]: 26.7 µM; GI50 [44]: 4.68 µM; TGI [44]: 20.7 µM; GI50 [45]: 1.81 µM; TGI [45]: 3.97 µM; GI50 [46]: 12.6 µM; TGI [46]: 51.4 µM; GI50 [47]: 4.73 µM; TGI [47]: > 100 µM; GI50 [48]: 15.1 µM; TGI [48]: > 100 µM; GI50 [49]: 8.29 µM; TGI [49]: 37.4 µM; GI50 [50]: 7.39 µM; TGI [50]: 28.4 µM; GI50 [51]: 7.32 µM; TGI [51]: 22.1 µM; GI50 [52]: 20.5 µM; TGI [52]: 87 µM; GI50 [53]: 6.44 µM; TGI [53]: 77.2 µM; GI50 [54]: 3.21 µM; TGI [54]: 12.9 µM; GI50 [55]: 5.15 µM; TGI [55]: 59.2 µM; GI50 [56]: 27 µM; TGI [56]: > 100 µM; GI50 [57]: 12.2 µM; TGI [57]: 32.1 µM; GI50 [58]: 6.21 µM; TGI [58]: 34.2 µM
